Laboratory results published in article PMC2673211, “Nitric oxide activates ATP-sensitive potassium channels in mammalian sensory neurons: action by direct S-nitrosylation” (Molecular Pain, 2009).
Read-outs that look alike come from different tables or passages of the source.

Tests used:
Format in all cases: biochemical
[1] = target: T1, KATP channels in large DRG neurons (Rattus norvegicus, UniProt P70673+Q09429); assay: Excised inside-out (cell-free) patch-clamp recording of KATP channel activity
T1 construct: native KATP channels in large DRG neurons; endogenous in cells; host or cells: acutely dissociated large-diameter neurons from rat L4/L5 dorsal root ganglia (sham-operated or spinal nerve ligated animals)
Description: We harvested control (L4 and L5) or axotomized (L5) ganglia, from control (SS) or hyperalgesic rats (SNL) respectively, between the 17th and 28th postoperative days. We sacrificed animals by decapitation under deep isoflurane anesthesia, excised ganglia through a lumbar incision, and at the same time confirmed accuracy of initial surgery.
For patch-clamp recordings, we placed excised DRG into separate 35 mm Petri dishes containing cold, oxygenated, Hanks Balanced Salt Solution (Gibko, Invitrogen, Grand Islan, NY), and minced them with iris scissors. We dissociated ganglia enzymatically in a solution containing 0.25 ml 0.05% w:v liberase blendzyme 2 (Roche Diagnostics Corp., Indianapolis, IN) and 0.25 ml DMEM/F12 with glutaMAX (Dulbecco's modified Eagle's medium F12; Gibco, Invitrogen Corp., Carlsbad, CA) in an incubator at 37°C for 30 min. We then removed the supernatant after centrifugation and re-incubated cells at 37°C for another 30 min in 0.2 ml 0.0625% trypsin (Sigma, St. Louis, MO) and 0.0125% deoxyribonuclease 1 (150,000 U, Sigma, St. Louis, MO) in 0.25 ml DMEM. We then isolated cells by centrifugation (600 rpm for 5 min) after adding 0.25 ml trypsin inhibitor 0.1% w:v (Sigma St. Louis, MO), and re-suspended them in a culture medium consisting of 0.5 mM glutamine, 0.02 mg/ml gentamicin (Gibco, Invitrogen Corp., Carlsbad, CA), 100 ng/ml nerve growth factor 7S (Alomone Labs, Jerusalem, Israel), 2% (vol/vol) B-27 supplement (Gibco, Invitrogen Corp., Carlsbad, CA), and 98% (vol/vol) neural basal medium A (Gibco, Invitrogen Corp., Carlsbad, CA). Finally, we plated cells onto poly-l-lysine-coated 12-mm glass coverslips (Deutsche Spiegelglas; Carolina Biologic Supply, Burlington, NC), kept them in a humidified incubator at 37°C with 95% air and 5% CO2, and studied them within 3–8 h of dissociation.
We visualized plated neurons using an inverted Nikon Diaphot 300 microscope with Hoffman modulation optic system. We selected only large diameter neuronal somata (≥ 40 μm in diameter) because we have previously shown that only these develop KATP current alterations, as well as changes indicative of increased excitability after painful-like nerve injury by SNL [74]. Large neuronal somata, roughly correspond to large, myelinated Aβ fibers.
(§1) We recorded current passing through single channels in inside-out or cell-attached patch configurations. In cell-attached patches, both bath and pipette (extracellular) solutions were composed of the following: 140 mM KCl, 10 mM HEPES, 5.5 mM dextrose, and 1 mM EGTA. In inside-out patches, the bath (intracellular) solution contained 140 mM KCl, 1.2 mM MgCl2, 10 mM HEPES, 1.5 mM EGTA and 5.5 mM dextrose. The pipette (extracellular) solution was of the same composition as that used in cell-attached recordings. The pH of all solutions was adjusted to 7.4 with KOH. Osmolality was adjusted approximately to 300 mOsm/l by adding sucrose if necessary. We pulled patch micropipettes from borosilicate glass capillaries using a Flaming/Brown micropipette puller, model P-97 (Sutter, San Rafael, CA) and flame polished them with a microforge polisher (Narishige, Tokyo, Japan) prior to use. Their resistance ranged between 3 and 6 MΩ when filled with the internal solution, and placed into the recording solutions.
(§2) We recorded single channel currents at room temperature (20–25°C) using an Axon CNS Multiclamp 700B amplifier, digitized them using an analog-to-digital converter (Axon CNS DigiData 1440A; Axon Instruments, Foster, CA), and stored them into a PC. Sampling frequency of single-channel data was 5 KHz with a low-pass filter (1 KHz). We used pClamp version 10.2 software (Axon Instruments) for data acquisition and analysis. We applied a conventional 50% current amplitude threshold level criterion to determine open events. Channel open probability (Po) was determined from the ratios of the area under the peaks in the amplitude histograms fitted by a Gaussian distribution. […]

[2] = target: T2, SUR1-C717S/Kir6.2 channels (Rattus norvegicus, UniProt P70673+Q09429, C717S); assay: Inside-out patch recording of mutated channels expressed in COS7 cells; conditions: n = 7
T2 construct: A full-length Kir cDNA and a full-length SUR cDNA were subcloned into the mammalian expression vector; expressed in transfected cells; host or cells: COS7 cells, pcDNA3.1(-) vectors, GFP cDNA co-transfected as a separate reporter
Experimental: (§3) KATP channel-deficient COS7 cells were plated at a density of 3 × 10^5/dish (35 mm in diameter) and cultured in Dulbecco's modified Eagle's medium supplemented with 10% fetal calf serum. Rat Kir6.2 (GenBank X97041) and rat SUR1 (GenBank X97279) cDNAs were used for expression study. A truncated form of Kir6.2 lacking the last 36 amino acids at the C-terminus was obtained by polymerase chain reaction amplification. Polymerase chain reaction products were cloned into the pCR3.1 vector by using the TA cloning system (Invitrogen Corp., Carlsbad, CA, USA) and then cloned into the pcDNA3.1 (-) vector (Invitrogen Corp.) for mammalian expression. Point mutation of cysteine at position 717 (C717), C806, C1378, C1446, and C1491 within SUR1 to serine (C717S, C806S, C1378S, C1446S, and C1491S) was performed by using the Site-Directed Mutagenesis system (Invitrogen Corp.). All cDNA products were sequenced by using the BigDye terminator cycle sequencing kit and an ABI PRISM 377 DNA sequencer (Applied Biosystems, Foster City, CA) to confirm the sequence. A full-length Kir cDNA and a full-length SUR cDNA were subcloned into the mammalian expression vector pcDNA3.1 (-). For electrophysiological recordings, either wild-type or mutated pcDNA3.1 (-) Kir6.2 alone (1 μg), or pcDNA3.1 (-) Kir6.2 (1 μg) plus pcDNA3.1 (-) SUR1 (3 μg) were transfected into COS7 cells with green fluorescent protein cDNA as a reporter gene by using lipofectamine and Opti-MEN 1 reagents (Life Technologies Inc., Rockville, MD) according to the manufacturer's instructions. After transfection, cells were cultured at 37°C with 95% air and 5% CO2 for 48–72 h before being subjected to electrophysiological recordings.
as §1
as §2, with “We applied a conventional 50% current amplitude threshold level criterion to determine open events.” left out, “distribution. We calculated channel activity as NPo (where N is the number of observed channels in the patch) from data samples of either 30 s (in inside-out recordings), or 60 s (in cell-attached recordings), in the steady state.” for “distribution.”

[3] = target: T3, wild-type SUR1/Kir6.2 channels (Rattus norvegicus, UniProt P70673+Q09429); assay: Inside-out patch recording of recombinant wild-type channels expressed in COS7 cells
T3 construct: A full-length Kir cDNA and a full-length SUR cDNA were subcloned into the mammalian expression vector; expressed in transfected cells; host or cells: COS7 cells (KATP channel-deficient), pcDNA3.1(-) vectors, GFP cDNA co-transfected as a separate reporter
Experimental: as §3, §1
as §2, with “We applied a conventional 50% current amplitude threshold level criterion to determine open events.” left out, “distribution. We calculated channel activity as NPo (where N is the number of observed channels in the patch) from data samples of either 30 s (in inside-out recordings), or 60 s (in cell-attached recordings), in the steady state.” for “distribution.”

T1 sequence (Q09429 whole entry): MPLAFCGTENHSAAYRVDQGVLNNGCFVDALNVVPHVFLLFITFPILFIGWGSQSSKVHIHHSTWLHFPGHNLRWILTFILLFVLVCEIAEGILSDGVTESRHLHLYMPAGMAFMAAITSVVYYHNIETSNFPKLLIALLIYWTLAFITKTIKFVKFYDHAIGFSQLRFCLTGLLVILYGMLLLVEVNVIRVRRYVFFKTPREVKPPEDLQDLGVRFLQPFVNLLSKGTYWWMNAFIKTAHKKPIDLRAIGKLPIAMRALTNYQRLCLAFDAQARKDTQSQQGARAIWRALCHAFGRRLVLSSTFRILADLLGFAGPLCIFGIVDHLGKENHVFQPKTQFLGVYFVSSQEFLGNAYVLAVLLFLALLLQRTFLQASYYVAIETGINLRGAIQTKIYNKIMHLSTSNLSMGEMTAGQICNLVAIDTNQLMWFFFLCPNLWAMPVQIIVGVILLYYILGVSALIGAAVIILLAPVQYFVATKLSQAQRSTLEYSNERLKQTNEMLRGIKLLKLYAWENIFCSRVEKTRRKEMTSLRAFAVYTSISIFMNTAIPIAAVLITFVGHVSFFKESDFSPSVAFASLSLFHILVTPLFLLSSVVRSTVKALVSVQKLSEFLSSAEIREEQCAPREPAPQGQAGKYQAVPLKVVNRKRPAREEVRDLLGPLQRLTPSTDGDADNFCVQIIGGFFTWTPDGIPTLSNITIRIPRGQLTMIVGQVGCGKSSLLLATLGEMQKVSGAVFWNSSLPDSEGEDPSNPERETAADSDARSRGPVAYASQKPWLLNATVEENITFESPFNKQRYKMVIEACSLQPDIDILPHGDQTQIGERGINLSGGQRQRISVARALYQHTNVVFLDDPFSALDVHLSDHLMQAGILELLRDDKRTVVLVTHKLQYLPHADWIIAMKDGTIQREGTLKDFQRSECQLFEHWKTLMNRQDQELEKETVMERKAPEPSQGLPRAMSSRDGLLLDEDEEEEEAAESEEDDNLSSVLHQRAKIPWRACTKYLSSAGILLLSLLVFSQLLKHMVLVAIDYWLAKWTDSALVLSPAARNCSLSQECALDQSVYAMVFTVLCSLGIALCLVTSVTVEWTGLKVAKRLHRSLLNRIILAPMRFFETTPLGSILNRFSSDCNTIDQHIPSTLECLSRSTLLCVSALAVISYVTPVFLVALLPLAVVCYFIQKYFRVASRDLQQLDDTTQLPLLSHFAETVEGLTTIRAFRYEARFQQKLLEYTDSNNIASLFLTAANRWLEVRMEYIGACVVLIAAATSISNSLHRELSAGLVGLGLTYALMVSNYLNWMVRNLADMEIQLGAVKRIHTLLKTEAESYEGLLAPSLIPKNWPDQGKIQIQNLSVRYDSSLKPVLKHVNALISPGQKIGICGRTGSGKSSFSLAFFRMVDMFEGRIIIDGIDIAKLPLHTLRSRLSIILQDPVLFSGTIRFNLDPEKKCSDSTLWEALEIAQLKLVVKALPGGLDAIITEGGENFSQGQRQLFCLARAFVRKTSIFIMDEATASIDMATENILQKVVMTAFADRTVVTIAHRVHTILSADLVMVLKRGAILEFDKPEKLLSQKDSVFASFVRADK
T1 sequence (P70673 whole entry): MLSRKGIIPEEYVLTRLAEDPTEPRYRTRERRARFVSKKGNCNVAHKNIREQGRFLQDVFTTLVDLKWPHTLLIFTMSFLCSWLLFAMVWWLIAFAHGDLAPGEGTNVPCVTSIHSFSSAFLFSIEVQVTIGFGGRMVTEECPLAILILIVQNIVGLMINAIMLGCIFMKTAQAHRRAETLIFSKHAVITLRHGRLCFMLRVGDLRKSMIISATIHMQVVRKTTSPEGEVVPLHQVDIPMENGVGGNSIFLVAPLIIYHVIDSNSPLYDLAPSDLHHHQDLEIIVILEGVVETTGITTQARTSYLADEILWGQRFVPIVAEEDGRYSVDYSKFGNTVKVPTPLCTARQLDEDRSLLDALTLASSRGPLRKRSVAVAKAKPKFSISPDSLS
T2 sequence (Q09429 whole entry C717S): as the sequence (Q09429 whole entry) above, with C717S counted along it
T2 sequence (P70673 whole entry): as the sequence (P70673 whole entry) above
T3 sequence (Q09429 whole entry): as the sequence (Q09429 whole entry) above
T3 sequence (P70673 whole entry): as the sequence (P70673 whole entry) above

effect on channel activity in inside-out patches ([1]; ATP 1 mM, SS and SNL, -60 mV): reversibly blocked | IC50 ([1]; SNL neurons, various intracellular ATP concentrations, n = 5, read-out: ATP sensitivity IC50): 18.1 µM | IC50 ([1]; SS neurons, various intracellular ATP concentrations, n = 5, read-out: ATP sensitivity IC50): 14.7 µM | IC50 ([1]; absence of SNAP, SS neurons, n = 7, read-out: IC50 value for [ATP]i): 12.8 µM | IC50 ([1]; presence of SNAP, SS neurons, n = 7, read-out: IC50 value for [ATP]i): 54.4 µM | effect on recombinant channel currents ([2]; 1 mM [ATP]i): strongly inhibited | IC50 ([2]; read-out: ATP-sensitivity IC50): 13.1 µM | effect on recombinant channel currents ([3]; 1 mM [ATP]i, COS7 cells, inside-out): strongly inhibited | IC50 ([3]; n = 7, read-out: ATP-sensitivity IC50): 11.6 µM
SMILES: Nc1ncnc2c1ncn2[C@@H]1O[C@H](COP(=O)(O)OP(=O)(O)OP(=O)(O)O)[C@@H](O)[C@H]1O [ATP]
